Experimental data reported in patent US20210015811A1, “METHODS OF TREATING A PULMONARY BACTERIAL INFECTION USING FLUOROQUINOLONES” (HORIZON ORPHAN, LLC, priority 2009, published 2021).
Converted amounts (≈) assume the structure as drawn.

Assays:
[1] = system: 114 CF P. aeruginosa isolates; assay: Aerobic and anaerobic MIC susceptibility testing (broth microdilution, CLSI); type: cell-based, Pseudomonas aeruginosa; details: for aerobic versus anaerobic MIC distribution (potency under anaerobic conditions): all 114 P. aeruginosa isolates, FIGS. 2A-D; for increase of geometric mean of the MIC by anaerobic incubation / increase of MIC50 under anaerobic conditions: 114 CF isolates; for increase of MIC50 under anaerobic conditions: CAMHB + 1% KNO3 for anaerobic
Description: One hundred and fourteen CF P. aeruginosa isolates were obtained for susceptibility testing from the CF Referral Center for Susceptibility & Synergy Studies at Columbia University (New York, N.Y.) and also from two CF Therapeutics Development Network (TDN) laboratories (Seattle Children's Hospital, Seattle, Wash. and University of North Carolina at Chapel Hill, Chapel Hill, N.C.). About sixty percent were recent isolates (2004-2007) with the remaining forty percent isolated between 1980 and 2004.
The antibiotics used in these studies included tobramycin, levofloxacin, amikacin, and aztreonam which are in use or in development as aerosolized therapies for CF. For aerobic susceptibility tests, levofloxacin hydrochloride, tobramycin sulfate, and amikacin disulfate were purchased from LKT Laboratories (St. Paul, Minn.) and aztreonam base was purchased from MP Biomedicals (Solon, Ohio). All antibiotics used for anaerobic susceptibility tests were purchased from the United States Pharmacopeia (Rockville, Md.).
(§1) Antibiotic MIC endpoints were obtained using the broth microdilution method according to the CLSI reference method. See Clinical and Laboratory Standards Institute. Methods for Dilution Antimicrobial Susceptibility Tests for Bacteria That Grow Aerobically—Seventh Edition: Approved Standard M7-A7. CLSI, Wayne, Pa., USA, 2006. Antibiotics were serially diluted to the following concentrations for aerobic testing: levofloxacin and tobramycin from 0.03-32 mg/L and amikacin and aztreonam from 0.125-128 mg/L. Anaerobic susceptibility testing required the addition of 1% potassium nitrate (KNO3) to cation-adjusted Mueller-Hinton broth (CAMHB) to allow for P. aeruginosa anaerobic respiration. For anaerobic testing, frozen MIC plates were thawed and stored in the anaerobic chamber overnight to ensure elimination of all oxygen prior to inoculation with test strains. The dilution range for all antibiotics was 0.125-128 mg/L for the anaerobic susceptibility tests. Extended incubation of up to 48 hours under anaerobic conditions may be required and was needed for 54% of the isolates.

[2] = system: P. aeruginosa strain PAM1573 (na1B gyrA (Thr83Ile)); assay: Levofloxacin MIC against isogenic strain PAM1573; type: cell-based; details: Pseudomonas aeruginosa
Description: (§2) P. aeruginosa strains PAM1020 (wild-type), PAM1032 (na1B), PAM1481 (na1B gyrA (Asp87Tyr)), and PAM1573 (na1B gyrA (Thr83Ile)) represent relevant efflux-mediated and target mutation resistance mechanisms and were used in the levofloxacin time-kill assays.
as §1, with “The dilution range for all antibiotics was 0.125-128 mg/L for the anaerobic susceptibility tests. Extended incubation of up to 48 hours under anaerobic conditions may be required and was needed for 54% of the isolates.” left out
(§3) Aerobic and hypoxic Mueller-Hinton broth (MHB) cultures were diluted to an initial inoculum of 1×10^7-1×10^8 CFU/ml. […] Agar plates were incubated up to 48 hours at 37° C. and bactericidal activity was assessed. […]

[3] = system: P. aeruginosa strain PAM1020 (wild-type); assay: Levofloxacin MIC against isogenic strain PAM1020; type: cell-based; details: Pseudomonas aeruginosa
Description: as §2
as §1, with “The dilution range for all antibiotics was 0.125-128 mg/L for the anaerobic susceptibility tests. Extended incubation of up to 48 hours under anaerobic conditions may be required and was needed for 54% of the isolates.” left out
as §3

[4] = system: P. aeruginosa strain PAM1032 (na1B); assay: Levofloxacin MIC against isogenic strain PAM1032; type: cell-based; details: Pseudomonas aeruginosa
Description: as §2
as §1, with “The dilution range for all antibiotics was 0.125-128 mg/L for the anaerobic susceptibility tests. Extended incubation of up to 48 hours under anaerobic conditions may be required and was needed for 54% of the isolates.” left out
as §3

[5] = system: P. aeruginosa strain PAM1481 (na1B gyrA (Asp87Tyr)); assay: Levofloxacin MIC against isogenic strain PAM1481; type: cell-based; details: Pseudomonas aeruginosa
Description: as §2
as §1, with “The dilution range for all antibiotics was 0.125-128 mg/L for the anaerobic susceptibility tests. Extended incubation of up to 48 hours under anaerobic conditions may be required and was needed for 54% of the isolates.” left out
as §3

[6] = anaerobic vs aerobic incubation

SMILES | aerobic versus anaerobic MIC distribution (potency under anaerobic conditions) [1] | increase of geometric mean of the MIC by anaerobic incubation [1, 6] | increase of MIC50 under anaerobic conditions [1, 6] [fold] | MIC [2] [mg/L] | MIC [3] [mg/L] | MIC [4] [mg/L] | MIC [5] [mg/L] | isolates with MIC increase >4-fold under anaerobic conditions ([1]; anaerobic vs aerobic incubation, share of 114 CF isolates) [%]
C[C@H]1[C@H](NC(=O)/C(=N\OC(C)(C)C(=O)O)c2csc(N)n2)C(=O)N1S(=O)(=O)O [aztreonam] | reduced potency | ~6 fold | 16 | – | – | – | – | –
C[C@H]1COc2c(N3CCN(C)CC3)c(F)cc3c(=O)c(C(=O)O)cn1c23 [levofloxacin] | – | – | 2 | 8 (≈ 22.1 µM) | 0.125 (≈ 0.346 µM) | 1 (≈ 2.77 µM) | 4 (≈ 11.1 µM) | 4
NC[C@H]1O[C@H](O[C@H]2[C@H](O)[C@@H](O[C@H]3O[C@H](CO)[C@@H](O)[C@H](N)[C@H]3O)[C@H](N)C[C@@H]2N)[C@H](N)C[C@@H]1O [tobramycin] | reduced potency | approximately 7 fold | 4 | – | – | – | – | –
NCC[C@H](O)C(=O)N[C@@H]1C[C@H](N)[C@@H](O[C@H]2O[C@H](CN)[C@@H](O)[C@H](O)[C@H]2O)[C@H](O)[C@H]1O[C@H]1O[C@H](CO)[C@@H](O)[C@H](N)[C@H]1O [amikacin] | reduced potency | ~4 fold | – | – | – | – | – | –
